Data reported in the NIST ThermoML archive (doi:10.1021/je900387e).

Test: xn = mol fraction of the nth substance listed
Conditions: Liquid, Pycnometric method

CCCCBr [1-bromobutane] + O=C=O
Conditions	mass density [kg/m3]
322.7 K, 11600 kPa, x1 = 0.0683	826
322.7 K, 11640 kPa, x1 = 0.1495	987
322.7 K, 11680 kPa, x1 = 0.0989	884
322.7 K, 11910 kPa, x1 = 0.0461	797
322.7 K, 11910 kPa, x1 = 0.0683	832
322.7 K, 11990 kPa, x1 = 0.1495	990
322.7 K, 12130 kPa, x1 = 0.0989	890
322.7 K, 12220 kPa, x1 = 0.0683	838
322.7 K, 12290 kPa, x1 = 0.1495	994
322.7 K, 12570 kPa, x1 = 0.0683	845
322.7 K, 12610 kPa, x1 = 0.0989	897
322.7 K, 12640 kPa, x1 = 0.0461	814
322.7 K, 12660 kPa, x1 = 0.1495	997
322.7 K, 12900 kPa, x1 = 0.0683	850
322.7 K, 13010 kPa, x1 = 0.1495	1000
322.7 K, 13110 kPa, x1 = 0.0989	903
322.7 K, 13210 kPa, x1 = 0.0461	826
322.7 K, 13280 kPa, x1 = 0.0683	857
322.7 K, 13490 kPa, x1 = 0.1495	1004
322.7 K, 13640 kPa, x1 = 0.0989	910
322.7 K, 13730 kPa, x1 = 0.0683	864
322.7 K, 13820 kPa, x1 = 0.1495	1008
322.7 K, 13830 kPa, x1 = 0.0461	838
322.7 K, 13960 kPa, x1 = 0.0683	867
322.7 K, 14210 kPa, x1 = 0.0989	916
322.7 K, 14230 kPa, x1 = 0.1495	1011
322.7 K, 14620 kPa, x1 = 0.1495	1015
322.7 K, 14880 kPa, x1 = 0.0989	924
322.7 K, 15120 kPa, x1 = 0.1495	1018
322.7 K, 15160 kPa, x1 = 0.0989	926
327.6 K, 8820 kPa, x1 = 0.1495	922
327.6 K, 8950 kPa, x1 = 0.1495	924
327.6 K, 9080 kPa, x1 = 0.0245	359
327.6 K, 9100 kPa, x1 = 0.0989	786
327.6 K, 9110 kPa, x1 = 0.0245	362
327.6 K, 9140 kPa, x1 = 0.1495	927
327.6 K, 9170 kPa, x1 = 0.0245	369
327.6 K, 9220 kPa, x1 = 0.0245	375
327.6 K, 9230 kPa, x1 = 0.0989	791
327.6 K, 9270 kPa, x1 = 0.0245	382
327.6 K, 9330 kPa, x1 = 0.0245	389
327.6 K, 9340 kPa, x1 = 0.1495	930
327.6 K, 9350 kPa, x1 = 0.0683	677
327.6 K, 9360 kPa, x1 = 0.0461	555
327.6 K, 9380 kPa, x1 = 0.0245	396
327.6 K, 9380 kPa, x1 = 0.0461	559
327.6 K, 9380 kPa, x1 = 0.0683	680
327.6 K, 9390 kPa, x1 = 0.0461	563
327.6 K, 9390 kPa, x1 = 0.0989	796
327.6 K, 9420 kPa, x1 = 0.0245	401
327.6 K, 9430 kPa, x1 = 0.0461	569
327.6 K, 9460 kPa, x1 = 0.0245	406
327.6 K, 9470 kPa, x1 = 0.0461	577
327.6 K, 9470 kPa, x1 = 0.0683	688
327.6 K, 9490 kPa, x1 = 0.0461	584
327.6 K, 9520 kPa, x1 = 0.0245	414
327.6 K, 9520 kPa, x1 = 0.1495	933
327.6 K, 9540 kPa, x1 = 0.0989	801
327.6 K, 9560 kPa, x1 = 0.0461	591
327.6 K, 9570 kPa, x1 = 0.0683	696
327.6 K, 9580 kPa, x1 = 0.0245	423
327.6 K, 9650 kPa, x1 = 0.0245	431
327.6 K, 9650 kPa, x1 = 0.0461	599
327.6 K, 9700 kPa, x1 = 0.0683	705
327.6 K, 9700 kPa, x1 = 0.0989	806
327.6 K, 9710 kPa, x1 = 0.0461	606
327.6 K, 9710 kPa, x1 = 0.1495	936
327.6 K, 9720 kPa, x1 = 0.0245	440
327.6 K, 9760 kPa, x1 = 0.0461	615
327.6 K, 9790 kPa, x1 = 0.0245	449
327.6 K, 9830 kPa, x1 = 0.0461	623
327.6 K, 9830 kPa, x1 = 0.0683	714
327.6 K, 9860 kPa, x1 = 0.0245	459
327.6 K, 9890 kPa, x1 = 0.0989	811
327.6 K, 9890 kPa, x1 = 0.1495	939
327.6 K, 9920 kPa, x1 = 0.0461	631
327.6 K, 9950 kPa, x1 = 0.0245	469
327.6 K, 10000 kPa, x1 = 0.0683	723
327.6 K, 10010 kPa, x1 = 0.0461	640
327.6 K, 10030 kPa, x1 = 0.0245	480
327.6 K, 10050 kPa, x1 = 0.0245	484
327.6 K, 10060 kPa, x1 = 0.0245	486
327.6 K, 10070 kPa, x1 = 0.1495	942
327.6 K, 10080 kPa, x1 = 0.0989	817
327.6 K, 10120 kPa, x1 = 0.0461	649
327.6 K, 10190 kPa, x1 = 0.0683	733
327.6 K, 10240 kPa, x1 = 0.0461	658
327.6 K, 10290 kPa, x1 = 0.0989	822
327.6 K, 10310 kPa, x1 = 0.1495	945
327.6 K, 10360 kPa, x1 = 0.0461	668
327.6 K, 10380 kPa, x1 = 0.0683	742
327.6 K, 10500 kPa, x1 = 0.0461	678
327.6 K, 10510 kPa, x1 = 0.0989	828
327.6 K, 10560 kPa, x1 = 0.1495	949
327.6 K, 10630 kPa, x1 = 0.0683	752
327.6 K, 10660 kPa, x1 = 0.0461	688
327.6 K, 10730 kPa, x1 = 0.0989	833
327.6 K, 10780 kPa, x1 = 0.1495	951
327.6 K, 10840 kPa, x1 = 0.0461	698
327.6 K, 10920 kPa, x1 = 0.0683	762
327.6 K, 10990 kPa, x1 = 0.0461	706
327.6 K, 11000 kPa, x1 = 0.1495	954
327.6 K, 11060 kPa, x1 = 0.0989	839
327.6 K, 11240 kPa, x1 = 0.0683	773
327.6 K, 11280 kPa, x1 = 0.1495	958
327.6 K, 11310 kPa, x1 = 0.0989	845
327.6 K, 11520 kPa, x1 = 0.1495	961
327.6 K, 11590 kPa, x1 = 0.0683	783
327.6 K, 11620 kPa, x1 = 0.0989	851
327.6 K, 11790 kPa, x1 = 0.1495	964
327.6 K, 11960 kPa, x1 = 0.0989	857
327.6 K, 11990 kPa, x1 = 0.0683	794
327.6 K, 12050 kPa, x1 = 0.1495	967
327.6 K, 12310 kPa, x1 = 0.0989	862
327.6 K, 12370 kPa, x1 = 0.1495	970
327.6 K, 12460 kPa, x1 = 0.0683	805
327.6 K, 12670 kPa, x1 = 0.1495	974
327.6 K, 12710 kPa, x1 = 0.0989	869
327.6 K, 13000 kPa, x1 = 0.1495	977
327.6 K, 13040 kPa, x1 = 0.0683	817
327.6 K, 13110 kPa, x1 = 0.0989	875
327.6 K, 13350 kPa, x1 = 0.1495	981
327.6 K, 13520 kPa, x1 = 0.0989	880
327.6 K, 13650 kPa, x1 = 0.0683	829
327.6 K, 13660 kPa, x1 = 0.1495	984
327.6 K, 13960 kPa, x1 = 0.1495	987
327.6 K, 13980 kPa, x1 = 0.0989	887
327.6 K, 13990 kPa, x1 = 0.0683	835
327.6 K, 14320 kPa, x1 = 0.1495	990
327.6 K, 14470 kPa, x1 = 0.0989	893
327.6 K, 14690 kPa, x1 = 0.1495	993
327.6 K, 14740 kPa, x1 = 0.0683	848
327.6 K, 14960 kPa, x1 = 0.0683	851
327.6 K, 15000 kPa, x1 = 0.0989	900
327.6 K, 15090 kPa, x1 = 0.1495	997
332.4 K, 9170 kPa, x1 = 0.0245	317
332.4 K, 9200 kPa, x1 = 0.0245	319
332.4 K, 9250 kPa, x1 = 0.0245	323
332.4 K, 9300 kPa, x1 = 0.0245	328
332.4 K, 9350 kPa, x1 = 0.0245	332
332.4 K, 9350 kPa, x1 = 0.1495	896
332.4 K, 9400 kPa, x1 = 0.0245	336
332.4 K, 9440 kPa, x1 = 0.0245	340
332.4 K, 9490 kPa, x1 = 0.0245	345
332.4 K, 9540 kPa, x1 = 0.0245	349
332.4 K, 9580 kPa, x1 = 0.0245	354
332.4 K, 9580 kPa, x1 = 0.1495	900
332.4 K, 9640 kPa, x1 = 0.0245	359
332.4 K, 9670 kPa, x1 = 0.0989	750
332.4 K, 9690 kPa, x1 = 0.0245	364
332.4 K, 9740 kPa, x1 = 0.0245	369
332.4 K, 9760 kPa, x1 = 0.1495	903
332.4 K, 9780 kPa, x1 = 0.0989	755
332.4 K, 9790 kPa, x1 = 0.0245	375
332.4 K, 9810 kPa, x1 = 0.0461	512
332.4 K, 9830 kPa, x1 = 0.0461	516
332.4 K, 9840 kPa, x1 = 0.0245	380
332.4 K, 9840 kPa, x1 = 0.0683	622
332.4 K, 9870 kPa, x1 = 0.0683	625
332.4 K, 9890 kPa, x1 = 0.0461	521
332.4 K, 9890 kPa, x1 = 0.0989	759
332.4 K, 9890 kPa, x1 = 0.1495	906
332.4 K, 9900 kPa, x1 = 0.0245	386
332.4 K, 9900 kPa, x1 = 0.0683	629
332.4 K, 9930 kPa, x1 = 0.0461	527
332.4 K, 9950 kPa, x1 = 0.0245	392
332.4 K, 9960 kPa, x1 = 0.0683	636
332.4 K, 9970 kPa, x1 = 0.0461	533
332.4 K, 10000 kPa, x1 = 0.0683	640
332.4 K, 10000 kPa, x1 = 0.0989	764
332.4 K, 10010 kPa, x1 = 0.0245	398
332.4 K, 10020 kPa, x1 = 0.0245	399
332.4 K, 10020 kPa, x1 = 0.0461	539
332.4 K, 10040 kPa, x1 = 0.1495	909
332.4 K, 10060 kPa, x1 = 0.0461	546
332.4 K, 10070 kPa, x1 = 0.0683	647
332.4 K, 10110 kPa, x1 = 0.0989	769
332.4 K, 10120 kPa, x1 = 0.0461	552
332.4 K, 10150 kPa, x1 = 0.0683	654
332.4 K, 10180 kPa, x1 = 0.0461	559
332.4 K, 10190 kPa, x1 = 0.1495	912
332.4 K, 10240 kPa, x1 = 0.0461	566
332.4 K, 10240 kPa, x1 = 0.0683	662
332.4 K, 10240 kPa, x1 = 0.0989	774
332.4 K, 10300 kPa, x1 = 0.0461	573
332.4 K, 10340 kPa, x1 = 0.0683	670
332.4 K, 10370 kPa, x1 = 0.0461	580
332.4 K, 10370 kPa, x1 = 0.0989	778
